We go through five compounds from patent EP0216290A2, “Use of thienyl amines as agents with an output-accelerating effect; thienyl amine” (BAYER AG, priority 1985, dated 1987).

In this assay the test system is Weibliche Laborratten. As to the kind of experiment: Rat feeding test (Ratten-Fütterungsversuch, Beispiel A). Type of assay: in vivo, Laborratten vom Typ SPF Wistar. The settings on record: 25 ppm in feed ad lib, 13-day test, 12 female rats per group; relative to control without active substance = 100. The source says:
Weibliche Laborratten 90-110 g schwer vom Typ SPF Wistar (Züchtung Hagemann) werden ad lib mit Standard Rattenfutter, das mit der gewünschten Menge Wirkstoff versetzt ist, gefüttert. Jeder Versuchsansatz wird mit Futter der identischen Charge durchgeführt, so daß Unterschiede in der Zusammensetzung des Futters die Vergleichbarkeit der Ergebnisse nicht beeinträchtigen können.
Die Ratten erhalten Wasser ad lib.
Jeweils 12 Ratten bilden eine Versuchsgruppe und werden mit Futter, das mit der gewünschten Menge Wirkstoff versetzt ist, gefüttert. Eine Kontrollgruppe erhält Futter ohne Wirkstoff. Das durchschnittliche Körpergewicht sowie die Streuung in den Körpergewichten der Ratten ist in jeder Versuchsgruppe gleich, so daß eine Vergleichbarkeit der Versuchsgruppen untereinander gewährleistet ist.
Während des 13-tägigen Versuchs werden Gewichtszunahme und Futterverbrauch bestimmt.
Es werden die aus der Tabelle ersichtlichen Ergebnisse erhalten: […]
For the compound `CCOC(=O)c1c(NC(=O)OC)sc(C)c1CC` [Bsp. 1, 2-Aminomethoxycarbonyl-3-carbethoxy-4-ethyl-5-methylthiophen], the Gewichtszunahme is 119.
For the compound `CCCCCc1cc(C(=O)OCC)c(NC(=O)Oc2ccccc2C)s1` [Bsp. 20], the Gewichtszunahme is on record as 109.
On to `CCCCCc1cc(C(=O)OCC)c(NC(=O)OC2CCCCC2)s1` [Bsp. 19], for which the Gewichtszunahme was determined as 115.
`CCOC(=O)c1cc(CC)sc1NC(=O)Oc1ccccc1` [Bsp. 56]: the Gewichtszunahme came out at 116.
Consider `COC(=O)Nc1sc2c(c1C(=O)OC)CCCC2` [Bsp. 31], for which the Gewichtszunahme was 109.
